≈ marks a conversion by molar mass, not a printed value.
How the values were obtained:
A. baumannii ATCC 19606 = experiment: microbe, parasite or virus in culture; type: cell-based; details: Acinetobacter baumannii, ATCC19606, read-out: MIC, A. baumannii ATCC 19606
P. aeruginosa ATCC 35151 = experiment: microbe, parasite or virus in culture; type: cell-based; details: Pseudomonas aeruginosa, ATCC35151, read-out: Minimum inhibitory concentration, P. aeruginosa ATCC 35151
[1] = system: P. aeruginosa (ΔmexAB-oprM); experiment: Broth microdilution MIC in iron-depleted CAMHB (IDM); type: cell-based; details: Pseudomonas aeruginosa; iron-depleted CAMHB (IDM); […]; read-out: Minimum inhibitory concentration, P. aeruginosa ΔmexAB-oprM
A. baumannii 1258916 = experiment: microbe, parasite or virus in culture; type: cell-based, Acinetobacter baumannii; details: Acinetobacter baumannii, 1258916, read-out: MIC, A. baumannii 1258916
A. baumannii CDC-0036 = experiment: microbe, parasite or virus in culture; type: cell-based; details: Acinetobacter baumannii, CDC0036, read-out: MIC, A. baumannii CDC-0036
A. baumannii CDC-0045 = experiment: microbe, parasite or virus in culture; type: cell-based; details: Acinetobacter baumannii, CDC0045, read-out: MIC, A. baumannii CDC-0045
N. gonorrhoeae FA1090 = experiment: Liquid broth MIC in Fastidious broth; details: Neisseria gonorrhoeae, FA1090, read-out: Minimum Inhibitory Concentration, FA 1090
N. gonorrhoeae MS11 = experiment: Liquid broth MIC in Fastidious broth; details: Neisseria gonorrhoeae, MS11, read-out: Minimum Inhibitory Concentration, MS11
N. gonorrhoeae WHO L = experiment: Liquid broth MIC in Fastidious broth; details: Neisseria gonorrhoeae, read-out: Minimum Inhibitory Concentration, WHO L
Experimental: Liquid broth-based assays were used for antibacterial testing of PBP inhibitors in Neisseria gonorrhoeae. Briefly, cryo-preserved bacterial cultures of clinical strains were streaked for isolation on Chocolate Agar (72 g/L (2×) GC Agar Base (BD #228950) and 2% (2×) Hemoglobin was autoclaved at 121° C. for 20 minutes to sterilize. Once cooled to ˜50° C. the 2×GC Agar Base and 2× Hemoglobin solutions are combined and 1% IsoVitaleX Enrichment (BD #211876) was added to the solution). Strains were incubated at 36° C. and 5% CO2 to allow growth of colonies, 24 hours before inoculum preparation. 2-fold serial dilutions of test compounds were conducted in a 96 well plate with a final volume of 75 μL per well at 2-fold the final desired concentration in Fastidious broth (Remel #R07664). For preparation of assay inoculum, a direct suspension was prepared by aseptically swabbing 10-15 colonies from agar plates into culture tubes containing 2 mL of fresh sterile saline. After the dilution plates were set up, direct suspensions were then diluted in a cuvette containing sterile saline and the optical density was measured at 600 nm. Inocula were diluted such that 75 μL of this culture in Fastidious broth results in a starting bacterial concentration of 5×10^5 CFU/mL when added to the dilution plates. The plates were incubated for ˜24 hours at 36° C. and 5% CO2.

N. gonorrhoeae WHO M = experiment: Liquid broth MIC in Fastidious broth; details: Neisseria gonorrhoeae, read-out: Minimum Inhibitory Concentration, WHO M
N. gonorrhoeae WHO K = experiment: Liquid broth MIC in Fastidious broth; details: Neisseria gonorrhoeae, read-out: Minimum Inhibitory Concentration, WHO K
N. gonorrhoeae WHO Z = experiment: Liquid broth MIC in Fastidious broth; details: Neisseria gonorrhoeae, read-out: Minimum Inhibitory Concentration, WHO Z
N. gonorrhoeae WHO Q = experiment: Liquid broth MIC in Fastidious broth; details: Neisseria gonorrhoeae, read-out: Minimum Inhibitory Concentration, WHO Q

| Structure (SMILES) | MIC (A. baumannii ATCC 19606) | MIC (P. aeruginosa ATCC 35151) | MIC [1] | MIC (A. baumannii 1258916) | MIC (A. baumannii CDC-0036) | MIC (A. baumannii CDC-0045) | MIC (N. gonorrhoeae FA1090) | MIC (N. gonorrhoeae MS11) | MIC (N. gonorrhoeae WHO L) | MIC (N. gonorrhoeae WHO M) | MIC (N. gonorrhoeae WHO K) | MIC (N. gonorrhoeae WHO Z) | MIC (N. gonorrhoeae WHO Q) |
| --- | --- | --- | --- | --- | --- | --- | --- | --- | --- | --- | --- | --- | --- |
| O=C(NCCCS(=O)(=O)N1CCN(C(=O)NC(C(=O)N[C@H]2Cc3ccc(F)c(C(=O)O)c3OB2O)c2cc(F)c(O)c(O)c2Cl)C1=O)c1ccccc1 (stereo partly drawn) [Example 268, (3R)-3-(2-(3-((3-benzamidopropyl)sulfonyl)-2-oxoimidazolidine-1-carboxamido)-2-(2-chloro-5-fluoro-3,4-dihydroxyphenyl)acetamido)-7-fluoro-2-hydroxy-3,4-dihydro-2H-benzo[e][1,2]oxaborinine-8-carboxylic acid] | < 1 mg/L | < 1 mg/L | < 1 mg/L | < 1 mg/L | 2 to 4 mg/L (≈ 2.56 to 5.13 µM) | 2 to 4 mg/L (≈ 2.56 to 5.13 µM) | 4 to 8 mg/L (≈ 5.13 to 10.3 µM) | 16 to 32 mg/L (≈ 20.5 to 41 µM) | > 64 mg/L | 16 to 32 mg/L (≈ 20.5 to 41 µM) | > 64 mg/L | 16 to 32 mg/L (≈ 20.5 to 41 µM) | 16 to 32 mg/L (≈ 20.5 to 41 µM) |
| O=C(NCCCS(=O)(=O)N1CCN(C(=O)NC(C(=O)N[C@H]2Cc3ccc(F)c(C(=O)O)c3OB2O)c2cc(F)c(O)c(O)c2Cl)C1=O)c1ccc(O)cc1 (stereo partly drawn) [Example 269, (3R)-3-(2-(2-chloro-5-fluoro-3,4-dihydroxyphenyl)-2-(3-((3-(4-hydroxybenzamido)propyl)sulfonyl)-2-oxoimidazolidine-1-carboxamido)acetamido)-7-fluoro-2-hydroxy-3,4-dihydro-2H-benzo[e][1,2]oxaborinine-8-carboxylic acid] | < 1 mg/L | < 1 mg/L | < 1 mg/L | 2 to 4 mg/L (≈ 2.51 to 5.03 µM) | 8 to 16 mg/L (≈ 10.1 to 20.1 µM) | < 1 mg/L | 4 to 8 mg/L (≈ 5.03 to 10.1 µM) | 16 to 32 mg/L (≈ 20.1 to 40.2 µM) | > 64 mg/L | 4 to 8 mg/L (≈ 5.03 to 10.1 µM) | > 64 mg/L | 16 to 32 mg/L (≈ 20.1 to 40.2 µM) | 16 to 32 mg/L (≈ 20.1 to 40.2 µM) |
| O=C(NCCCS(=O)(=O)N1CCN(C(=O)N[C@H](C(=O)N[C@H]2Cc3ccc(F)c(C(=O)O)c3OB2O)c2cc(F)c(O)c(O)c2Cl)C1=O)c1cccc(O)c1 [Example 270, (R)-3-((S)-2-(2-chloro-5-fluoro-3,4-dihydroxyphenyl)-2-(3-((3-(3-hydroxybenzamido)propyl)sulfonyl)-2-oxoimidazolidine-1-carboxamido)acetamido)-7-fluoro-2-hydroxy-3,4-dihydro-2H-benzo[e][1,2]oxaborinine-8-carboxylic acid] | 2 to 4 mg/L (≈ 2.51 to 5.03 µM) | < 1 mg/L | < 1 mg/L | 8 to 16 mg/L (≈ 10.1 to 20.1 µM) | 32 to 64 mg/L (≈ 40.2 to 80.4 µM) | 8 to 16 mg/L (≈ 10.1 to 20.1 µM) | 16 to 32 mg/L (≈ 20.1 to 40.2 µM) | > 64 mg/L | > 64 mg/L | > 64 mg/L | > 64 mg/L | > 64 mg/L | > 64 mg/L |
| O=C(NCCCS(=O)(=O)N1CCN(C(=O)N[C@@H](C(=O)N[C@H]2Cc3ccc(F)c(C(=O)O)c3OB2O)c2cc(F)c(O)c(O)c2Cl)C1=O)c1cccc(O)c1 [Example 271, (R)-3-((R)-2-(2-chloro-5-fluoro-3,4-dihydroxyphenyl)-2-(3-((3-(3-hydroxybenzamido)propyl)sulfonyl)-2-oxoimidazolidine-1-carboxamido)acetamido)-7-fluoro-2-hydroxy-3,4-dihydro-2H-benzo[e][1,2]oxaborinine-8-carboxylic acid] | < 1 mg/L | < 1 mg/L | < 1 mg/L | < 1 mg/L | 2 to 4 mg/L (≈ 2.51 to 5.03 µM) | < 1 mg/L | 1 to 2 mg/L (≈ 1.26 to 2.51 µM) | 16 to 32 mg/L (≈ 20.1 to 40.2 µM) | > 64 mg/L | 4 to 8 mg/L (≈ 5.03 to 10.1 µM) | > 64 mg/L | 4 to 8 mg/L (≈ 5.03 to 10.1 µM) | 16 to 32 mg/L (≈ 20.1 to 40.2 µM) |

Reference: patent US20240270762A1, “PENICILLIN-BINDING PROTEIN INHIBITORS” (priority 2021, published 2024)
